How the values were obtained:
BCL-2/BAK = target: T1, BCL-2/BAK (Homo sapiens, UniProt P10415); assay: Inhibitory activity for BCL-2/BAK binding (Cisbio BCL-2/BAK (BH3) binding assay kit)
T1 construct: purchased Cisbio 63ADK000CB01PEG
Procedure: 500 nM Tag1-BCL-2 protein stock solution and 20 μM Tag2-BAK protein stock solution were diluted to 5 nM and 120 nM respectively with dilution buffer in kit (name: BCL-2/BAK (BH3) BINDING ASSAY KITS, cat. No.: 63ADK000CB01PEG, from Cisbio). 5 μL of Tag1-BCL-2 protein diluent was added to each well, then test compounds dissolved with DMSO were added to the wells with a nanoliter pipettor, allowing the final compound concentrations to be 200 nM to 0.0488 nM (4-fold gradient for 7 concentrations in total). Blank control wells (without enzyme) and negative control wells (with enzyme, plus vehicle DMSO) were set, and 2 replicate wells were set. Finally, 5 μL of Tag2-BAK protein diluent was added to each well, and the mixture was mixed well by centrifugation and incubated at 25° C. for 15 min. 100× anti-Tag1-Eu^3+ and 100× anti-Tag2-XL665 were both diluted to 1× working concentration with the detection buffer in the kit. Anti-Tag1-Eu^3+ and anti-Tag2-XL665 were mixed well in a 1:1 ratio, and the mixture was added to wells at 5 μL/well, and incubated at 25° C. for 2 h or more. The plate was read using a PE Envision multi-functional microplate reader ([…], emission: 665 nm) and IC50 (shown in Table 2) was calculated by four-parameter fitting.

BCL-XL/BAK = target: T2, BCL-XL/BAK (Homo sapiens, UniProt Q07817); assay: Inhibitory activity for BCL-XL/BAK binding (Cisbio BCL-XL/BAK (BH3) binding assay kit)
T2 construct: purchased Cisbio 63ADK000CB04PEG
Procedure: 300 nM Tag1-BCL-XL protein stock solution and 10 μM Tag2-BAK protein stock solution were diluted to 2 nM and 80 nM respectively with dilution buffer in kit (name: BCL-XL/BAK (BH3) BINDING ASSAY KITS, cat. No.: 63ADK000CB04PEG, from Cisbio). 5 μL of Tag1-BCL-XL protein diluent was added to each well, then different test compounds dissolved with DMSO were added to the wells with a nanoliter pipettor, allowing the final compound concentrations to be 2000 nM to 0.488 nM (4-fold gradient for 7 concentrations in total). Blank control wells (without enzyme) and negative control wells (with enzyme, plus vehicle DMSO) were set, and 2 replicate wells were set. Finally, 5 μL of Tag2-BAK protein diluent was added to each well, and the mixture was mixed well by centrifugation and incubated at 25° C. for 15 min. 100× anti-Tag1-Eu^3+ and 100× anti-Tag2-XL665 were both diluted to 1× working concentration with the detection buffer in the kit. Anti-Tag1-Eu^3+ and anti-Tag2-XL665 were mixed well in a 1:1 ratio, and the mixture was added to wells at 5 μL/well, and incubated at 25° C. for 2 h or more. The plate was read using a PE Envision multi-functional microplate reader ([…], emission: 665 nm) and IC50 (shown in Table 2) was calculated by four-parameter fitting.

RS4;11 cells = assay: Inhibition of proliferation of RS4;11 human acute lymphocytic leukemia cells (CCK-8); type: cell-based; details: 72 h compound exposure, CCK-8, 5% serum
Procedure: RS4;11 cells (from ATCC) in logarithmic growth phase and good cell condition were added to a centrifuge tube and centrifuged at 1500 rpm for 3 min in a low speed centrifuge. The supernatant was discarded, and 5 mL of complete medium (RPMI basic medium+10% FBS) was added using a pipette for cell resuspension. The cells were counted using a cell counter, diluted with complete medium to a cell density of 2×10^5 cells/mL, and an equivalent amount of RPMI basic medium was added to adjust the serum concentration to 5% and the cell density to 1×10^5 cells/mL for plate seeding. The cells were seeded on a 96-well plate at 100 μL/well using a pipettor, and incubated in an incubator at 37° C., 5% CO2 with saturated humidity. After 24 h of incubation, compounds were loaded using a nanoliter pipettor, 2 duplicate wells were set for each concentration, and cells without compound were used as negative controls. […] Inhibition rate (%)=(mean value of negative control group−mean value of experimental group)/(mean value of negative control group−mean value of blank group)×100%. A dose-response curve was fitted by four-parameter analysis, with the logarithm of compound concentration serving as abscissa and inhibition rate serving as ordinate, so that IC50 was calculated (Table 1).

T1 sequence (P10415 whole entry): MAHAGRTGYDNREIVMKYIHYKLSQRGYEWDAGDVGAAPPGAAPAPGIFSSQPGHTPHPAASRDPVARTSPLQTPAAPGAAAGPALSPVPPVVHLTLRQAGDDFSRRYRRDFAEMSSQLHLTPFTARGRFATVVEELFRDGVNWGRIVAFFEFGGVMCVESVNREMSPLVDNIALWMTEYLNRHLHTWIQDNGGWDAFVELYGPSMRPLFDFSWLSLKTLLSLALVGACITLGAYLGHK
T2 sequence (Q07817 whole entry): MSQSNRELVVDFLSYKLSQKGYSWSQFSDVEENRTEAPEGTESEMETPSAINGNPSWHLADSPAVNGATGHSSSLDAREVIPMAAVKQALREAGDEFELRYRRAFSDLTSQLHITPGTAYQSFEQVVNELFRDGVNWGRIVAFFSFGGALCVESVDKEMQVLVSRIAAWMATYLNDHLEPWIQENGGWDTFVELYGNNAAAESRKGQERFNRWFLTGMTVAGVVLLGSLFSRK

SMILES | IC50 (BCL-2/BAK) | IC50 (BCL-XL/BAK) | IC50 (RS4;11 cells)
Cc1cc(C(F)(F)F)ccc1C1=C(CN2CCN(c3ccc(C(=O)NS(=O)(=O)c4ccc(NC[C@H]5CCCOC5)c([N+](=O)[O-])c4)c(Oc4cnc5[nH]ccc5c4)c3)CC2)CCC(C)(C)C1 [Compound 15-1, (R)-4-(4-{[2-(2-methyl-4-trifluoromethylphenyl)-4,4-dimethylcyclohex-1-enyl]methyl}-piperazin-1-yl)-N-({3-nitro-4-[((tetrahydropyran-3-yl)methyl)amino]phenyl}sulfonyl)-2-(1H-pyrrolo[2,3-b]pyridin-5-yloxy)-benzamide] | 1.53 nM | 261 nM | –
Cc1cc(C(F)(F)F)ccc1C1=C(CN2CCN(c3ccc(C(=O)NS(=O)(=O)c4ccc(NC[C@@H]5CCCOC5)c([N+](=O)[O-])c4)c(Oc4cnc5[nH]ccc5c4)c3)CC2)CCC(C)(C)C1 [Compound 16-1, (S)-4-(4-{[2-(2-methyl-4-trifluoromethylphenyl)-4,4-dimethylcyclohex-1-enyl]methyl}-piperazin-1-yl)-N-({3-nitro-4-[((tetrahydropyran-3-yl)methyl)amino]phenyl}sulfonyl)-2-(1H-pyrrolo[2,3-b]pyridin-5-yloxy)-benzamide] | 2.07 nM | 144 nM | –
Cc1cc(C(F)(F)F)ccc1C1=C(CN2CCN(c3ccc(C(=O)NS(=O)(=O)c4ccc(NC[C@@H]5CN(C(=O)C(C)C)CCO5)c([N+](=O)[O-])c4)c(Oc4cnc5[nH]ccc5c4)c3)CC2)CCC(C)(C)C1 [Compound 21-1, (R)-4-(4-{[2-(2-methyl-4-trifluoromethylphenyl)-4,4-dimethylcyclohex-1-enyl]methyl}-piperazin-1-yl)-N-({3-nitro-4-[((4-isobutyrylmorpholin-2-yl)methyl)amino]phenyl}sulfonyl)-2-(1H-pyrrolo[2,3-b]pyridin-5-yloxy)-benzamide] | 0.72 nM | 115 nM | 5.5 nM
Cc1cc(C(F)(F)F)ccc1C1=C(CN2CCN(c3ccc(C(=O)NS(=O)(=O)c4ccc(NC[C@H]5CN(S(C)(=O)=O)CCO5)c([N+](=O)[O-])c4)c(Oc4cnc5[nH]ccc5c4)c3)CC2)CCC(C)(C)C1 [Compound 22-1, (S)-4-(4-{[2-(2-methyl-4-trifluoromethylphenyl)-4,4-dimethylcyclohex-1-enyl]methyl}-piperazin-1-yl)-N-({3-nitro-4-[((4-(methylsulfonyl)morpholin-2-yl)methyl)amino]phenyl}sulfonyl)-2-(1H-pyrrolo[2,3-b]pyridin-5-yloxy)-benzamide] | 1.31 nM | 105 nM | 2.2 nM

— patent US12319689B2, “Methyl- and trifluoromethyl-containing disubstituted sulfonamide selective BCL-2 inhibitor” (CHIA TAI TIANQING PHARMACEUTICAL GROUP CO., LTD., priority 2019, dated 2025)
